For one test, the system named is Campylobacter jejuni. The experiment in a line: Cohort of breastfed mother-infant pairs: milk oligosaccharide vs C. jejuni-associated diarrhea. Format: in vivo, human. As to conditions: for Association of rates of C. jejuni diarrhea during breastfeeding with oligosaccharide as a percent of milk oligosaccharide: breastfed infants, 2′-FL P=0.004, LDFH-I P=0.047 (not persisting after controlling for 2′-FL). The source says: (§1) A cohort of 316 mother-infant pairs was enrolled and monitored from birth to two years postpartum in San Pedro Martir, a transitional neighborhood of Mexico City. Enrollment was restricted to term, normal birthweight infants. This research was approved by institutional review boards in Mexico and Cincinnati. Written informed consent was obtained from mothers who participated. Infant illness and feeding history were collected by trained field workers who made weekly home visits. Milk samples were collected from mothers weekly in the first month, and monthly thereafter. Samples were collected in the morning by an experienced study nurse using an Egnell electric breast pump to obtain the complete content of one breast. Samples were transported on ice from the study household to the laboratory, where they were stored at −70° C. Infant stool samples were collected weekly with additional samples obtained whenever diarrhea occurred. Diarrhea samples were routinely tested for Campylobacter jejuni, diarrheagenic E. coli, Shigella, Salmonella, Aeromonas, and rotavirus, as detailed in previous publications (129, 136-138). […] Diarrhea episodes were defined throughout the study as three or more watery stools within a 24-hour period or loose-to-watery bowel movements that exceeded the child's usual daily stool frequency by two or more stools as determined by a study physician. […] Classification of disease severity was based on the standardized history of each diarrhea episode recorded by a study physician, and was blind to and independent of milk oligosaccharide analysis. Diarrhea was attributed to campylobacter or calicivirus if the pathogen was detected in a stool sample collected during or within seven days of an episode of diarrhea. […]
Milk samples were transported to Boston and analyzed as described previously(143). Milk oligosaccharides were isolated, perbenzoylated, and resolved by reversed-phase HPLC (C-8) with an acetonitrile/water gradient and detected at 229 nm. […]

A further test has as its system Campylobacter. The experiment in a line: Ex vivo inhibition of Campylobacter colonization of human intestinal mucosa. As to conditions: FIG. 9B. The protocol: FIGS. 9A and 9B are a pair of graphs depicting the results of an study showing inhibition of Campylobacter colonization in BALB/c mice fed with 2 mg of milk fucosylated oligosaccharides given during challenge with 10^4 and 10^8 CFU of bacteria (left). Ex vivo assays of inhibition of human gut colonization of Campylobacter with 2′-fucosyllactose (2′-FL) and milk fucosylated oligosaccharides (OS).

Test [1] relates to campylobacter adherence to intestinal epithelial cells. The settings on record: early studies (ref. 80); cited from earlier work.
The subject of a further test is V. cholerae. As to conditions: previous studies (ref. 86); cited from earlier work.
The next test relates to calicivirus. The experiment in a line: Cohort of breastfed mother-infant pairs: milk oligosaccharide vs calicivirus-associated diarrhea. Format: in vivo, human.
From the text: as §1, with “thereafter.” for “thereafter. Samples were collected in the morning by an experienced study nurse using an Egnell electric breast pump to obtain the complete content of one breast. Samples were transported on ice from the study household to the laboratory, where they were stored at −70° C. Infant stool samples were collected weekly with additional samples obtained whenever diarrhea occurred. Diarrhea samples were routinely tested for Campylobacter jejuni, diarrheagenic E. coli, Shigella, Salmonella, Aeromonas, and rotavirus, as detailed in previous publications (129, 136-138).”
Milk samples were transported to Boston and analyzed as described previously(143). […]

The test system of test [2] is Campylobacter binding to FUT1-CHO cells. The experiment in a line: Inhibition of Campylobacter binding to FUT1-transfected CHO cells. Format: cell-based, Campylobacter jejuni. As to conditions: FIG. 7. An excerpt:
α1,2-fucosyltransferase-transfected CHO cells (CHO-FUT1), α1,3/4-fucosyltransferase-transfected CHO cells (CHO-FUT3), and α1,3-fucosyltransferase-transfected CHO cells (CHO-FUT4), and parental CHO cells transfected with the vector pCDM7 lacking the α1,2 FUT gene (CHO-WT) can be used to test bacterial binding and bacterial/host cell agglutination. Parental CHO cells with the vectors are used as controls.
The binding of bacteria to CHO cells transfected with the human gene for α1,2-fucosyltransferase (FUT1), can be assessed by bacterial-cell association assay. […]
Ligands, such as α1,2-fucosyl ligands and homologs are tested for their ability to inhibit binding of campylobacter and V. cholerae strains to CHO-FUT1 cells. For molecules that is bind to H-2 ligands, including anti-H-2 monoclonal antibodies (anti-H-2 MAbs) and the lectins Ulex europaeus (UEA I) and Lotus tetragonolobus (Lotus), inhibition is measured on monolayers of CHO-FUT1 cells incubated in 8-well chamber slides for 1 h with each of the α1,2-fucosyl ligands before adding 100 μL of the bacterial suspension containing 1×10^8 bacteria/mL. […] In both assays, after a 3 h incubation at 37° C., wells are rinsed, lysed with 1% Triton X100, and CFU (colony forming units) of bacteria per well are determined. […]

Consider 2-Fucosyllactose [2′-FL], for which the “Association of rates of C. jejuni diarrhea during breastfeeding with oligosaccharide as a percent of milk oligosaccharide” value in the test with Campylobacter jejuni was “inversely associated”. Moreover, the “Campylobacter incidence in the intermediate and high groups compared to the low group” value in the test on Campylobacter jejuni (tertiles (n=31) of 2′-FL as percent of milk oligosaccharide: low <0.29, intermediate 0.29-0.36, high >0.37, FIG. 6A) is “significantly (P<0.01) less”. For the same molecule, the “Inhibition of C. jejuni binding/colonization in human intestinal mucosa ex vivo” value in the test on Campylobacter was “inhibits”.

In the case of `C[C@H](O)[C@@H](O)[C@@H](O)[C@H](O)C=O` [L-fucose], in test [1], the “Inhibition of campylobacter adherence to intestinal epithelial cells” value is “inhibition”. Further, the “Inhibition of hemagglutination produced by V. cholerae with human O erythrocytes” value with V. cholerae is given as “inhibited”.

Lacto-N-difucohexaose I [LDFH-I]: in the test with Campylobacter jejuni, the “Association of rates of C. jejuni diarrhea during breastfeeding with oligosaccharide as a percent of milk oligosaccharide” value was “directly associated”. For the same molecule, in the test on calicivirus (breastfed infants, P=0.012, dose-dependent), the “Association of calicivirus diarrhea during breastfeeding with oligosaccharide as a percent of milk oligosaccharide” value was “inverse association”. The “Calicivirus incidence in the high group compared to the low group” value in the test with calicivirus (tertiles (n=31) of LDFH-I as percent of milk oligosaccharide: low <0.07, intermediate 0.07-0.11, high >0.12, FIG. 6B) was “significantly (P=0.02) less”.

B1: Ulex europaeus lectin: lectin that binds to H-2 ligands (protein, UniProt P22972 1-243, looked up)
Anti-H(O) lectin 1: SDDLSFKFKNFSQNGKDLSFQGDASVIETGVLQLNKVGNNLPDETGGIARYIAPIHIWNCNTGEVASFITSFSFFMETSANPKAATDGLTFFLAPPDSPLRRAGGYFGLFEDTKDNDSSYQTVAVEFDTIGSPVNFDDPGFPHIGIDVNRVKSINAERWNKRYGLNNVANVEIIYEASSKTLTASLTYPSDQTSISVTSIVDLKEILPEWVSVGFSGGTYIGRQATHEVLNWYFTSNLINTNS
Regarding B1, the “Inhibition of bacterial binding to α1,2-fucosyltransferase (FUT1)-transfected CHO cells” value in test [2] was “specifically inhibited”.
